Source: patent US20170158599A1, “COMPOSITIONS AND METHODS COMPRISING SALICYLATES AND POLYSALICYLATES” (Biocogent, LLC, priority 2014, published 2017)

System: peripheral blood mononuclear cells (PBMC)
Assay: Lipid mediators of the resolution pathways in PBMC with PMA/A23187 stimulation
Assay type: cell-based
Description: The next two sets of adjacent bars show a comparison of the effects of treatment with PMA plus A23187 in the presence of salicylic acid (on left of each group) and polysalicylic acid (on right of each group) in amounts of 1.6 micrograms per milliliter (μg/mL) and 8 micrograms per milliliter (μg/mL), respectively. […] The resultant SA derivative was evaluated at different doses on the synthesis of 8 intermediate lipids of the resolution pathways in PMBC with PMA/A23187 stimulation. PMBC cells were seeded and allowed to settle for 1 hour; the test compounds were then added and allowed to incubate for an additional hour. The inflammatory stimulus (PMA plus A23187) was added for one hour, and supernatants were collected and analyzed for lipid intermediates.

O=C(O)c1ccccc1O [salicylic acid, 2-hydroxybenzoic acid]
14-HDOHE levels/production (PMA plus A23187, 1.6 and 8 μg/mL (FIG. 1)): noticeable increase over the control
12-HETE levels/production (PMA plus A23187, 1.6 and 8 μg/mL (FIG. 2)): noticeable increase over the control
